Data taken from US12583861B2, “Derivatives of imidazo[4,5-d]pyridazine, their preparation and their therapeutic application” (SANOFI, priority 2021, dated 2026).
pEC50: −log10 of the molar value. Counter-ions that a name gives are not always drawn.

Legend:
human TLR7 = biological target: T1, human TLR7 (Homo sapiens, UniProt Q9NYK1); assay: HEK-Blue hTLR7 reporter cell assay (SEAP, NF-kB/AP-1) for stimulation of human TLR7; type: cell-based; conditions: HEK-Blue hTLR7 cells, 24 h incubation, SEAP readout; read-out: TLR7_EC50
T1 construct: host or cells: HEK293 (HEK-Blue hTLR7)
T1 sequence (Q9NYK1 27-1049): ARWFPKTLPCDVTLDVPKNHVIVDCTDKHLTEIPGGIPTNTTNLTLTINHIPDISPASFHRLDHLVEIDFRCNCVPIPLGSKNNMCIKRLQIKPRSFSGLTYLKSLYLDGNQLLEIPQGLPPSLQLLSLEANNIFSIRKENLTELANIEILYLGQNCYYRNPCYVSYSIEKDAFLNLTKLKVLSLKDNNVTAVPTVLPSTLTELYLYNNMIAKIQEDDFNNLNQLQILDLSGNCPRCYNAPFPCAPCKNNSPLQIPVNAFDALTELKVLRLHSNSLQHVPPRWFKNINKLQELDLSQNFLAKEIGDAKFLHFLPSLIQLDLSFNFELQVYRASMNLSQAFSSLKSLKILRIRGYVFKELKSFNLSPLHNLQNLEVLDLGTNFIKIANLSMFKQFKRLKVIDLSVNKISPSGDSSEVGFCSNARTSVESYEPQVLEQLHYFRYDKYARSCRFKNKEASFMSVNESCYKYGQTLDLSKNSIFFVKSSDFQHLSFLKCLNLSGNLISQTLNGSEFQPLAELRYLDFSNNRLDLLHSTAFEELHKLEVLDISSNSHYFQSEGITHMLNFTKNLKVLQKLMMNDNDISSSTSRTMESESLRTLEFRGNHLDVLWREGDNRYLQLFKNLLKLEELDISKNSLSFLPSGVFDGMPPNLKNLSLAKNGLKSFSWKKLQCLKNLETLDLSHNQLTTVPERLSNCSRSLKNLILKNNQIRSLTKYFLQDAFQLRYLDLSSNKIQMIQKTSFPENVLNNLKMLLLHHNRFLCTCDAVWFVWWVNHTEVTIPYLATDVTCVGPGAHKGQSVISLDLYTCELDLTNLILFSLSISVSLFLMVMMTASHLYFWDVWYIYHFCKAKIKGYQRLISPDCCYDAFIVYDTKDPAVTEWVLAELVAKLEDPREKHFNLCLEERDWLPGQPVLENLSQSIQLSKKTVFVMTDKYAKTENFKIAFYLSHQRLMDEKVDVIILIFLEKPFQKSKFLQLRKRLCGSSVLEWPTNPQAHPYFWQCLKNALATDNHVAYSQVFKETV
Description: (§1) The below tests, involving measuring the in vitro activity of some compounds of the disclosure on TLR7 and TLR8, were carried out using the HEK-Blue™ cells as reporter.
The activity described below, with respect to TLR7, TLR8, IFN-α2a, IL-6, IL29 and TNF-α, is given by the half maximal effective concentration (EC50), which corresponds to the concentration required to obtain a 50% of the activation. The lower the EC50, the less the concentration of the compound is required to produce 50% of maximum activation and the higher the potency.
(§2) In Vitro Assay for Studying the Stimulation of Human TLR7 and TLR8:
(§3) HEK-Blue™ hTLR7 Cells (#hkb-htlr7) and HEK-Blue™ hTLR8 Cells (#hkb-htlr8) from InvivoGen were used according to the manufacturer's instructions. These Reporter HEK293 cells were obtained by co-transfection of the hTLR7 or TLR8 gene and an optimized Secreted Embryonic Alkaline Phosphatase (SEAP) reporter gene which is placed under the control of the IFN-β minimal promoter fused to five NF-κB and AP-1-binding sites. Stimulation with a TLR7/8 ligand activates NF-kB and AP-1 which induce the production of SEAP. The cells are seeded in 96-well plate at 3.10E4 cells/well and incubated 18 to 24 h at 37° C., 5% CO2 before adding the compounds to evaluate. The cells are subsequently incubated with 3-fold serial dilutions of each of the compounds (0.01 to 20 μM) for 24 hours at 37° C., 5% CO2. Next, 20 μL of the supernatant is harvested and incubated with 200 μL of QUANTI-Blue™ Solution.

human TLR8 = biological target: T2, human TLR8 (Homo sapiens, UniProt Q9NR97); assay: HEK-Blue hTLR8 reporter cell assay (SEAP, NF-kB/AP-1) for stimulation of human TLR8; type: cell-based; conditions: HEK-Blue hTLR8 cells, 24 h incubation, SEAP readout; read-out: TLR8_EC50
T2 construct: host or cells: HEK293 (HEK-Blue hTLR8)
T2 sequence (Q9NR97 27-1041): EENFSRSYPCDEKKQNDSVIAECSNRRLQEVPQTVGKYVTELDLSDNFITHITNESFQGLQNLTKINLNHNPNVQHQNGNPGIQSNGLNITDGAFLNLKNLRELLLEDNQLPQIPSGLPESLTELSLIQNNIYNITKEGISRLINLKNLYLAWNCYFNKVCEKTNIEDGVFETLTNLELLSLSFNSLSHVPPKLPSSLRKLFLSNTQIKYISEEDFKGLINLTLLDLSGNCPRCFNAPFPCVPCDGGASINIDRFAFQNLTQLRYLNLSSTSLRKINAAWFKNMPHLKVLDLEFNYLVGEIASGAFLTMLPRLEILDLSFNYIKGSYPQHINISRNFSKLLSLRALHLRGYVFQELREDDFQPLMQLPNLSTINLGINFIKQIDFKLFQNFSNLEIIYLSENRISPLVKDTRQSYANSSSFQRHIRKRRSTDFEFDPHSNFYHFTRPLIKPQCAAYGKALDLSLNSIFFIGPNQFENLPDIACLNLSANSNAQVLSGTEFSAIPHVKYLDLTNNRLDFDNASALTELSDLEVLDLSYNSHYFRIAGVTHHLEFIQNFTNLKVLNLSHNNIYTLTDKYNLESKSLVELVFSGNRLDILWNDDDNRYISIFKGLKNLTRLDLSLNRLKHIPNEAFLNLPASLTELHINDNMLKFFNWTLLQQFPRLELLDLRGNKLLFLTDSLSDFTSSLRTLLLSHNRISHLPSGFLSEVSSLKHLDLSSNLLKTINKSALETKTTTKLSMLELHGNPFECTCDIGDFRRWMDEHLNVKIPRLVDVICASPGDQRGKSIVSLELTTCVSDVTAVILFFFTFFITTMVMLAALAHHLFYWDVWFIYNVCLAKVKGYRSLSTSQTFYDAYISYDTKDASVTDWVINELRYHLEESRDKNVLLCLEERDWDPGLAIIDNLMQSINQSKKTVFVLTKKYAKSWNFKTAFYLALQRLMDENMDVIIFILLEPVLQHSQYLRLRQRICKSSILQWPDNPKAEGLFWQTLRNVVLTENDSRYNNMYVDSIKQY
Description: as §1, §2
as §3, with “The cells are subsequently incubated with 3-fold serial dilutions of each of the compounds (0.01 to 20 μM) for 24 hours at 37° C., 5% CO2.” left out

SMILES	pEC50 (human TLR7)	pEC50 (human TLR8)
CCCCc1nc2c(N)nnc(OC(C)C)c2n1C[C@H]1CCC[C@H](N)C1 (racemic) [Compound 32, 1-(((1S,3S)-3-aminocyclohexyl)methyl)-2-butyl-7-isopropoxy-1H-imidazo[4,5-]pyridazin-4-amine]	6.22	6.15
CCCCc1nc2c(N)nnc(OC3CC[S+]([O-])C3)c2n1Cc1ccc(OC)cc1 (single isomer, unassigned; isomer a) [Compound 65, 3-((4-amino-2-butyl-1-(4-methoxybenzyl)-1H-imidazo[4,5-d]pyridazin-7-yl)oxy)tetrahydrothiophene 1-oxide isomer A]	5.66	< 4.70
CCCCc1nc2c(N)nnc(OC3CC[S+]([O-])C3)c2n1Cc1ccc(OC)cc1 (single isomer, unassigned; isomer b) [Compound 69, 3-((4-amino-2-butyl-1-(4-methoxybenzyl)-1H-imidazo[4,5-d]pyridazin-7-yl)oxy)tetrahydrothiophene 1-oxide isomer B]	5.17	< 4.70
CCCCc1nc2c(N)nnc(OC(C)CC)c2n1Cc1ccc(OC)cc1 (stereo not drawn) [Compound 7, 7-(sec-butoxy)-2-butyl-1-(4-methoxybenzyl)-1H-imidazo[4,5-d]pyridazin-4-amine]	7.34	5.68
CCCCOc1nnc(N)c2nc(CCCC)n(Cc3ccc(OC)cc3)c12 [Compound 8, 7-butoxy-2-butyl-1-(4-methoxybenzyl)-1H-imidazo[4,5-d]pyridazin-4-amine]	6.77	< 4.70
CCCCc1nc2c(N)nnc(C3CCCC3)c2n1Cc1ccc(OC)cc1 [Compound 16, 2-butyl-7-cyclopentyl-1-(4-methoxybenzyl)-1H-imidazo[4,5-d]pyridazin-4-amine]	6.49	< 4.70
CCCCc1nc2c(N)nnc(OC(C)C)c2n1C[C@H]1CC[C@H](CN)CC1 [Compound 19, 4-(aminomethyl)cyclohexyl)methyl)-2-butyl-7-isopropoxy-1H-imidazo[4,5-d]pyridazin-4-amine dihydrochloride]	7.49	< 4.70
CCCCc1nc2c(N)nnc(OC(C)C)c2n1C[C@H]1CC[C@H](N)CC1 [Compound 25]	6.96	< 4.70
CCCCc1nc2c(N)nnc(OC(C)C)c2n1CCCCCCNC1CS(=O)(=O)C1 [Compound 154, 2-butyl-3-[6-[(1,1-dioxothietan-3-yl)amino]hexyl]-4-isopropoxy-imidazo[4,5-d]pyridazin-7-amine]	6.93	

Second part, the compound after the results:

pEC50 (human TLR7)	pEC50 (human TLR8)	SMILES
6.84	< 4.70	CCCCc1nc2c(N)nnc(OCCC)c2n1Cc1ccc(OC)cc1 [Compound 5, 2-butyl-1-(4-methoxybenzyl)-7-propoxy-1H-imidazo[4,5-d]pyridazin-4-amine]
6.72	< 4.70	CCCCc1nc2c(N)nnc(-c3ccn(C)c3)c2n1Cc1ccc(OC)cc1 [Compound 11, 2-butyl-1-(4-methoxybenzyl)-7-(1-methyl-1H-pyrrol-3-yl)-1H-imidazo[4,5d]pyridazin-4-amine]
6.15	< 4.70	CCCCc1nc2c(N)nnc(/C=C/C(C)C)c2n1Cc1ccc(OC)cc1 [Compound 12, (E)-2-butyl-1-(4-methoxybenzyl)-7-(3-methylbut-1-en-1-yl)-1H-imidazo[4,5-d]pyridazin-4-amine]
6.46	< 4.70	CCCCc1nc2c(N)nnc(CCC(C)C)c2n1Cc1ccc(OC)cc1 [Compound 13, 2-butyl-7-isopentyl-1-(4-methoxybenzyl)-1H-imidazo[4,5-d]pyridazin-4-amine]
6.19	< 4.70	CCCCc1nc2c(N)nnc(C3=CCCC3)c2n1Cc1ccc(OC)cc1 [Compound 15, 2-butyl-7-(cyclopent-1-en-1-yl)-1-(4-methoxybenzyl)-1H-imidazo[4,5-d]pyridazin-4-amine hydrochloride]
6.63	5.58	CCCCc1nc2c(N)nnc(OC(C)C)c2n1CC(C)(C)O [Compound 24, 1-(4-amino-2-butyl-7-isopropoxy-1H-imidazo[4,5-d]pyridazin-1-yl)-2-methylpropan-2-ol]
6.84	< 4.70	CCCCc1nc2c(N)nnc(OC(C)C)c2n1Cc1ccc(CN)cn1 [Compound 26, 1-((5-(aminomethyl)pyridin-2-yl)methyl)-2-butyl-7-isopropoxy-1H-imidazo[4,5-d]pyridazin-4-amine]
5.68	< 4.70	CCCCc1nc2c(N)nnc(OC(C)C)c2n1Cc1ccc(C#N)cn1 [Compound 27, 6-((4-amino-2-butyl-7-isopropoxy-1H-imidazo[4,5-d]pyridazin-1-yl)methyl)nicotinonitrile]
7.07	< 4.70	CCCCc1nc2c(N)nnc(OC(C)C)c2n1Cc1ccc(CNC(C)=O)cc1 [Compound 28, N-(4-((4-amino-2-butyl-7-isopropoxy-1H-imidazo[4,5c]pyridazin-1-yl)methyl)benzyl)acetamide]
7.17		CCCCc1nc2c(N)nnc(OC(C)C)c2n1Cc1ccc(CNC(=O)c2ccccc2)cc1 [Compound 106, N-(4-((4-amino-2-butyl-7-isopropoxy-1H-imidazo[4,5-d]pyridazin-1-yl)methyl)benzyl)benzamide]
